The values below come from patent publication US7772188B2, “Methods and compositions for the treatment of gastrointestinal disorders” (priority 2003, dated 2010).

The Kd is the constant that tells how readily two partners part at equilibrium.

No end group written: not given here.

One experiment relates to gastrointestinal transit. Briefly: Murine gastrointestinal transit (GIT) assay, charcoal front. The class given is in vivo, mice. The note with it: for gastrointestinal transit rate: SEQ ID NO:4 and Zelnorm 0.1 mg/kg, FIG. 3a/3b; for intestinal transit rate versus dosage: recombinantly synthesized peptides, FIG. 4a. How it is done:
In order to determine whether the peptides increase the rate of gastrointestinal transit, the peptides and controls were tested using a murine gastrointestinal transit (GIT) assay (Moon et al. Infection and Immunity 25:127, 1979). In this assay, charcoal, which can be readily visualized in the gastrointestinal tract is administered to mice after the administration of a test compound. The distance traveled by the charcoal is measured and expressed as a percentage of the total length of the […].
Mice were fasted with free access to water for 12 to 16 hours before the treatment with peptide or control buffer. The peptides were orally administered at 1 μg/kg-1 mg/kg of peptide in buffer (20 mM Tris pH 7.5) 7 minutes before being given an oral dose of 5% Activated Carbon (Aldrich 242276-250G). Control mice were administered buffer only before being given a dose of Activated Carbon. After 15 minutes, the mice were sacrificed and their intestines from the stomach to the cecum were dissected. The total length of the intestine as well as the distance traveled from the stomach to the charcoal front was measured for each animal and the results are expressed as the percent of the total length of the intestine traveled by the charcoal front. All results are reported as the average of 10 mice±standard deviation. A comparison of the distance traveled by the charcoal between the mice treated with peptide versus the mice treated with vehicle alone was performed using a Student's t test and a statistically significant difference was considered for P<0.05. P-values are calculated using a two-sided T-Test assuming unequal variances.
The identical experiment was performed to determine if SEQ ID NO:3 is effective in a chronic dosing treatment regimen. Briefly, 8 week old CD1 female mice are dosed orally once a day for 5 days with either SEQ ID NO:3 (0.06 mg/kg or 0.25 mg/kg in 20 mM Tris pH 7.5) or vehicle alone (20 mM Tris pH 7.5). On the 5th day, a GIT assay is performed identical to that above except 200 μl of a 10% charcoal solution is administered. […] The results are shown side by side with acute dosing (1 day).

Another experiment has as its system intestinal secretion. Kind of experiment: Suckling mouse model of intestinal secretion (SuMi assay). The class given is in vivo. The note with it: suckling mice. How it is done: In this model a test compound is administered to suckling mice that are between 7 and 9 days old. After the mice are sacrificed, the gastrointestinal tract from the stomach to the cecum is dissected (“guts”). The remains (“carcass”) as well as the guts are weighed and the ratio of guts to carcass weight is calculated. If the ratio is above 0.09, one can conclude that the test compound increases intestinal secretion. […] The effect of Zelnorm® was also studied.

For another experiment, the target named is T1, intestinal GC-C receptor (Homo sapiens, UniProt P25092).
T1 construct: host or cells: T84 human colon carcinoma cells
Briefly: Intestinal GC-C receptor activity assay (cyclic GMP by EIA in T84 cells). The class given is cell-based. The conditions noted are these: chemically synthesized peptides, FIG. 2. As for the experimental part: The ability of SEQ ID NO:5, SEQ ID NO:4, and SEQ ID NO:3 to activate the intestinal GC-C receptor was assessed in an assay employing the T84 human colon carcinoma cell line (American Type Culture Collection (Bethesda, Md.)). For the assays cells were grown to confluency in 24-well culture plates with a 1:1 mixture of Ham's F12 medium and Dulbecco's modified Eagle's medium (DMEM), supplemented with 5% fetal calf serum and were used at between passages 54 and 60.
Briefly, monolayers of T84 cells in 24-well plates were washed twice with 1 ml/well DMEM, then incubated at 37° C. for 10 min with 0.45 ml DMEM containing 1 mM isobutylmethylxanthine (IBMX), a cyclic nucleotide phosphodiesterase inhibitor. Test peptides (50 μl) were then added and incubated for 30 minutes at 37° C. The media was aspirated and the reaction was then terminated by the addition of ice cold 0.5 ml of 0.1N HCl. The samples were held on ice for 20 minutes and then evaporated to dryness using a heat gun or vacuum centrifugation. The dried samples were resuspended in 0.5 ml of phosphate buffer provided in the Cayman Chemical Cyclic GMP EIA kit (Cayman Chemical, Ann Arbor, Mich.). Cyclic GMP was measured by EIA according to procedures outlined in the Cayman Chemical Cyclic GMP EIA kit.

In experiment [1] the target is T2, GC-C receptors found in rat intestinal mucosa (Rattus norvegicus, UniProt P23897).
T2 sequence (P23897 23-1072): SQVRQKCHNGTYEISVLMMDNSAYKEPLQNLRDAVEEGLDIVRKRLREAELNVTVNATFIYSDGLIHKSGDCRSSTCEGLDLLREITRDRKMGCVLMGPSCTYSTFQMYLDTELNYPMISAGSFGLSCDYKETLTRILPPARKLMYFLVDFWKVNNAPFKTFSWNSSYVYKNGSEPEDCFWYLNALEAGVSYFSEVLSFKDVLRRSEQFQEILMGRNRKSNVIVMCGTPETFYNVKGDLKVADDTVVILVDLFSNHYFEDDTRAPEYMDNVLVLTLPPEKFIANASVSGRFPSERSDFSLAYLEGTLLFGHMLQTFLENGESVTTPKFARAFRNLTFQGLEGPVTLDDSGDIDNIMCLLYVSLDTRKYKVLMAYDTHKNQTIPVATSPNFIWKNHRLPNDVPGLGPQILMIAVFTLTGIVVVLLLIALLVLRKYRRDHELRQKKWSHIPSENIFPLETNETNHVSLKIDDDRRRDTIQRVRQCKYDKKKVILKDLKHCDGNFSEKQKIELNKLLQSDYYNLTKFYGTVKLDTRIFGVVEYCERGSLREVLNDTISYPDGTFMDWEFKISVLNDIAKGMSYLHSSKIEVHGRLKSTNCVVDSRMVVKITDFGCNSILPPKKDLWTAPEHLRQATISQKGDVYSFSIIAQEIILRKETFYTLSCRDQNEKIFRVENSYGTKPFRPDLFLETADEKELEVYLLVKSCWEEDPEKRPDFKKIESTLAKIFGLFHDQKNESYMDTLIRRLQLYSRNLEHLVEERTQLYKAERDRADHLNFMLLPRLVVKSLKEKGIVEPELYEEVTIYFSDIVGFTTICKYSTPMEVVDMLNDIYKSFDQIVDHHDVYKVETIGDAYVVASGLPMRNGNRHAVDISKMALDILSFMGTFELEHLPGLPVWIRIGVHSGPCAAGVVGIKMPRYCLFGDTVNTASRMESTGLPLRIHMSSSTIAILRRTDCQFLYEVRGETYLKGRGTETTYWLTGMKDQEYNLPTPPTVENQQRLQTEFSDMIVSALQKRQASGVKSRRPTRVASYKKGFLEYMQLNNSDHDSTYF
Also noted: Intestinal mucosa was extruded from the intestine by gentle pressure; from tissue; host or cells: rat small-intestinal epithelial cells (mucosa), used as a cell suspension. The conditions noted are these: same assay, observed by Giannella et al.; cited from earlier work.

For a further experiment, the system named is PBQ-induced writhing. Kind of experiment: Phenylbenzoquinone (PBQ)-induced writhing model. On the technique in general: In writhing tests, fewer writhes than in controls are read as antinociception.
Setting [2] is: recombinant peptides, dose response, FIG. 6a.

T1 sequence (P25092 24-1073): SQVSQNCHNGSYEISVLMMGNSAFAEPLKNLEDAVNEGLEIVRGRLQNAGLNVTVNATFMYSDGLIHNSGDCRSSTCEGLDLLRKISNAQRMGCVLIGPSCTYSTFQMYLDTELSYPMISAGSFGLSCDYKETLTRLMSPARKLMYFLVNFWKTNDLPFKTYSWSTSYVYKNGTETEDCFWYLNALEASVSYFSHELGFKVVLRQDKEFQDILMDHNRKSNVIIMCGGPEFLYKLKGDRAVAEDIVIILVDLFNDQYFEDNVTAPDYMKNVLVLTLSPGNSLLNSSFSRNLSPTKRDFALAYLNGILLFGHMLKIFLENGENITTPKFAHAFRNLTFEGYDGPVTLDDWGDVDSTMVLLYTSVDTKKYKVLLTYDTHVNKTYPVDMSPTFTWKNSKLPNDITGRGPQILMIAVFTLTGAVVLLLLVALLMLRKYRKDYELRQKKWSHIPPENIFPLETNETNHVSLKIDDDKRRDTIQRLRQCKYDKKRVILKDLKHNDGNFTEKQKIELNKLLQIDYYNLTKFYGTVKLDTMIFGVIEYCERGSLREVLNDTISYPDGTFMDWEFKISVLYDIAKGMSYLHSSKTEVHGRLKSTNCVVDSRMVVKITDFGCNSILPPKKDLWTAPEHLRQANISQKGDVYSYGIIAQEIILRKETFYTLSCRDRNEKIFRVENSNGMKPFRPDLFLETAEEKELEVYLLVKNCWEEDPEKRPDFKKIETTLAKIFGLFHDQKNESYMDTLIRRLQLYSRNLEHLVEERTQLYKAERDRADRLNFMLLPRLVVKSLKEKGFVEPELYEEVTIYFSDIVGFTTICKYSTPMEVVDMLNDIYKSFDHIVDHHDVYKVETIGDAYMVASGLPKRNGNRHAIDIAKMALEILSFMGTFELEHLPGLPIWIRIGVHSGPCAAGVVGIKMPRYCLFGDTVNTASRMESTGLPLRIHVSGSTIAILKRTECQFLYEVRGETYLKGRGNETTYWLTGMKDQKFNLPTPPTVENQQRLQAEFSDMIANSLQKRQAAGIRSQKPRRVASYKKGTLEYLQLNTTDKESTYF

Turning to `[H]/N=C(/NCCCCC)N/N=C/c1c[nH]c2ccc(OC)cc12` [Zelnorm®, tegaserod], the gastrointestinal transit rate result in the experiment with gastrointestinal transit (acute, oral, mice) is “increase gastrointestinal transit rate”. In the experiment on gastrointestinal transit (oral once a day for 5 days, CD1 female mice, FIG. 4c), the “effect in mouse gastrointestinal motility assay upon chronic dosing” value is reported as “effective”. In the experiment with intestinal secretion (0.2 mg/kg, FIG. 5), the “intestinal secretion (guts to carcass weight ratio)” value is on record as “does not increase intestinal secretion”.

On to “NSSNYCCELCCNPACTGCY [SEQ ID NO:4, Asn Ser Ser Asn Tyr Cys Cys Glu Leu Cys Cys Asn Pro Ala Cys Thr Gly Cys Tyr]”, for which the “activity in GC-C receptor activity assay” value on intestinal GC-C receptor is “activity comparable to SEQ ID NO:4”. For the same molecule, in the experiment on gastrointestinal transit (acute, oral, mice), the gastrointestinal transit rate result is “increase gastrointestinal transit rate” and the “intestinal transit rate versus dosage” value is on record as “intestinal transit rate increases with an increasing dosage”. In addition, the “intestinal transit rate versus Tris buffer or equivalent dose of Zelnorm” value in the experiment on gastrointestinal transit (acute, oral, mice, chemically synthesized peptides, FIG. 4b) was “increase intestinal transit rates more than either Tris buffer alone or an equivalent dose of Zelnorm®”. The “intestinal secretion (guts to carcass weight ratio)” value in the experiment with intestinal secretion (dose response, FIG. 5a/5b) is on record as “increase intestinal secretion”. Besides, the “intestinal secretion (guts to carcass weight ratio)” value in the experiment on intestinal secretion (setting [2]) is given as “increase intestinal secretion”. Moreover, in experiment [1], the Kd is around 13 nM.

On to “NSSNYCCEYCCNPACTGCY (cysteine pairing not given here) [SEQ ID NO:5]”, for which, in the experiment on gastrointestinal transit (acute, oral, mice), the “intestinal transit rate versus dosage” value is listed as “intestinal transit rate increases with an increasing dosage”. In addition, the “intestinal secretion (guts to carcass weight ratio)” value in the experiment on intestinal secretion (setting [2]) is “increase intestinal secretion”. Besides, the “antinociceptive effect relative to indomethacin” value in the experiment with PBQ-induced writhing (mouse PBQ writhing, visceral pain model) was “antinociceptive effects in this visceral pain model comparable to the intermediate doses of indomethacin”. In the experiment with PBQ-induced writhing (mouse, oral, 1 mg/kg dose, FIG. 8a), the “writhings compared to the vehicle control” value is “Significant reductions in writhings”.
